Data published in article PMC8342434, “Solubility of vitamin A in supercritical CO2: experimental study and thermodynamic modeling” (Scientific Reports, 2021).
Values after ≈ are worked out from the molar mass of the structure shown.

Assay: Equilibrium solubility of vitamin A in supercritical CO2 (static cell, UV-VIS)
Format: physicochemical
Procedure: Figure 1 indicates the system used for measuring the equilibrium solubility. […] Consequently, the gas was liquefied through dropping the temperature to − 20 °C so that it was prepared for pumping function by means of pressure controlling instruments (TEBCO, Iran) with an uncertainty of ± 0.1 MPa.
After CO2 pumped into the inlet solvent stream, the methanol tank (as a co-solvent in this section) and modulator valve controlled the solvent concentration. The inlet solvent concentration should be regulated. Thus, it is an adjustable factor as function of solute content based on simultaneous data from experimental setup. The pressure of the circuit was taken into the collection container through altering amount of modulator on the injection tap. This includes a certain volume of solvent (CO2 and methanol). Providing the thermal equilibrium condition with the inner part of the oven in shorter time, this equilibrium spiral pipe can be utilized for efficient mixing of CO2 and modulators. The cell was put inside carefully (FG Model, BF400E, Iran) to keep the operating temperature (with ± 0.5 K).
Roughly before the start of the extraction, 500 mg of powder Retinol were put into the static cell with the volume of 10 mL and due to the pressure drop, downward flowrate (in line with weight force of the materials) was used. Eluding physical entrainment of the unextracted Vitamin A (Rich Retinol), the tops of the pressurized equilibrium cell were connected by means of the stainless-steel disks before SC-CO2 was distributed into the cell, its pressure was enhanced up to the anticipated pressure before it is moved through the equilibrium cell at operational conditions. In the present research, 60 min was estimated to achieve the state of equilibrium (in the cell).
In fact, the final sample (in the standard state) in two phases of gas (carbon dioxide) and liquid phase (solution containing methanol and vitamin A) It was stored in accumulation glass and entered the spectrophotometer. Finally, the solvent was used to clean the circuit.
As solubility values of Vitamin A were obtained in various conditions, they were noted by absorbency mensuration’s at λmax using a model 2100 UNICO UV–VIS spectrophotometer with 1000 nm Wavelength. The equilibrium mole fraction yA and equilibrium solubility, S(g/L) in SC-CO2 over the ranges of temperature and pressure obtained from below equation[21]:1 yA=nA/nA+nC where2 nA=CAg/L×VAL/MAg/mol 3 nC=VlL×ρg/L/MCg/mol where nA and nC are sample moles of vitamin A and solvent, CA is the concentration of vitamin A g/L in the accumulation glass calculated by the curve of calibration. The volumes of the accumulation vial are denoted by VAL and VlL is the sampling circuit. Furthermore, MA and MC are the molecular weights of Vitamin A and CO2, respectively. By combining the aforementioned, the subsequent relation is achieved (Eq. (4)).4 yA=CAg/L×VSL×MCg/mol/CAg/L×VAL×MCg/mol+VlL×ρg/L×MAg/mol
In order to obtain the g/L of Vitamin A in SC-CO2 […] was used[21].5 Sg/L=CAg/L×VAL/VlL

Compound `CC1=C(/C=C/C(C)=C/C=C/C(C)=C/CO)C(C)(C)CCC1` [vitamin A, Retinol] has a Mole fraction (SC-CO2, 303 K, 90 bar) of 2.18e-05, a Mole fraction (SC-CO2, 303 K, 115 bar) of 2.92e-05 and a Mole fraction (SC-CO2, 303 K, 130 bar) of 3.58e-05. The Mole fraction (SC-CO2, 303 K, 140 bar) was 4.12e-05, the Mole fraction (SC-CO2, 303 K, 155 bar) was 5.29e-05 and the Mole fraction (SC-CO2, 303 K, 175 bar) was 6.01e-05. It also gave a Mole fraction (SC-CO2, 303 K, 185 bar) of 6.25e-05, a Mole fraction (SC-CO2, 303 K, 195 bar) of 7.21e-05 and a Mole fraction (SC-CO2, 303 K, 220 bar) of 7.96e-05. For the same compound, the Mole fraction (SC-CO2, 303 K, 230 bar) was 8.19e-05, the Mole fraction (SC-CO2, 303 K, 245 bar) was 8.32e-05 and the Mole fraction (SC-CO2, 313 K, 100 bar) was 1.68e-05. For the same compound, the Mole fraction (SC-CO2, 313 K, 120 bar) was 3.62e-05, the Mole fraction (SC-CO2, 313 K, 130 bar) was 5.41e-05 and the Mole fraction (SC-CO2, 313 K, 140 bar) was 5.25e-05. It also gave a Mole fraction (SC-CO2, 313 K, 155 bar) of 6.63e-05, a Mole fraction (SC-CO2, 313 K, 170 bar) of 8.13e-05 and a Mole fraction (SC-CO2, 313 K, 200 bar) of 0.000125. For the same compound, the Mole fraction (SC-CO2, 313 K, 235 bar) was 0.000138, the Mole fraction (SC-CO2, 313 K, 245 bar) was 0.000149 and the Mole fraction (SC-CO2, 323 K, 110 bar) was 2.68e-05. The Mole fraction (SC-CO2, 323 K, 135 bar) was 5.24e-05, the Mole fraction (SC-CO2, 323 K, 180 bar) was 0.00014 and the Mole fraction (SC-CO2, 323 K, 195 bar) was 0.000148. It also gave a Mole fraction (SC-CO2, 323 K, 205 bar) of 0.00016, a Mole fraction (SC-CO2, 323 K, 235 bar) of 0.000196 and a cross-over pressure (SC-CO2, isotherms at 303, 313 and 323 K (Fig. 3)) of 110 bar. For the same compound, the “solubility of fat-soluble vitamin A in SC-CO2” value (SC-CO2, under certain conditions) was about 0.7 g/kg and the solubility thermodynamic at 60 min (supercritical CO2 in a 10 mL static equilibrium cell, organic solvent or mixture, thermodynamic from solid, SC-CO2, 303–323 K, 90–235 bar, minimum at 303 K, 90 bar, maximum at 323 K, 235 bar, read-out: equilibrium solubility S of Vitamin A in SC-CO2, span over all conditions) was 96 to 1040 µg/mL (≈ 335 to 3620 µM).
